The values that follow come from patent US10357537B2, “Cyclotides as immunosuppressive agents” (priority 2011, dated 2019).

Bridge positions count the residues as written; N and C are the ends. Peptide text beside a SMILES is read from it.

In one test the test system is NFATc1 in human T-cells. Put plainly: Western blot for NFATc1. To be noted: CsA 5 μg/mL, T20K 4 μM; compared to V10K, PHA-L, PMA/Ionomycin. Format: cell-based. The method, then: (§1) FIG. 23. Effect of cyclotides on protein expression of NFAT1c. […] But instead of stimulating with PHA-L and PMA/ionomycin, one part of the cells was stimulated with PHA-L (10 μg/mL) and the other with PMA (50 ng/mL)/ionomycin (500 ng/mL) over night. […] Splenic T-cells isolated from naïve mouse group were stimulated as described above.
(§2) Human T-cells provided by CCRI from A. Dohnal, PhD were stimulated according to the protocol for IL2 release described above. Stimulated cells were resuspended in TBS and mixed at equal parts with sample buffer and heated for five minutes at 95° C. A sodium dodecyl sulfate polyacrylamide gel was prepared to separate the proteins achieved from the lysed T-cells. After electrophoresis proteins were transferred from the gel to a membrane. After blocking the membrane with BSA 3% in TBST over night at 4° C., the first antibody mouse anti-NFATc1 was incubated for 2 hours at room temperature. After five times washing with TBST 0.1% Tween, the membrane was incubated with the second antibody anit-mouse IgG HRP for one hour at room temperature. The membrane was dried and treated with West Pico or West Femto Super Signal Solution according to the manufactures protocol to evaluate the chemo-luminescence signal.

Test [1] has as its system NFATc1 in splenic T-cells of naive mouse group. Briefly: Western blot for NFATc1. In kind it is cell-based. As to conditions: compared to V10K and MOG. On the procedure:
as §1, §2

Test [2] concerns IL-2 surface receptor CD25 on PBMC. Briefly: IL-2 surface receptor CD25 expression, FACS. Format: cell-based, human. To be noted: cyclotides 4 μM, CsA 5 μg/mL, PHA-L; stimulated untreated PBMCs = 100%. The method, then:
PBMCs were isolated from blood samples of healthy adults that were provided by the transfusion center of the university hospital in Freiburg (Germany). […] The lymphocyte-enriched layer was transferred into a new vessel and washed three times with PBS and centrifuged again (10 min, twice with 300×g and last time with 800 rpm, 20° C.). For the following experiments, the cells were either stained with CFSE or diluted with medium to 4*10^6 cells/ml. Cells were counted in alight microscope using trypan blue staining and a hemocytometer.
Following purification, PBMCs were equilibrated for 2 h at 37° C. […] This was followed by washing of each well with 100 μl PBS (centrifugation for 5 min, 1000 rpm, 20° C.) and re-suspending the cells in 100 μl medium for further assays.
Activated cells were transferred into a 96-well plate, centrifuged (5 min, 1000 rpm, 20° C.), washed one time with 100 μl FACS-buffer and stained with CD25 PE for 15 min at 4° C. Then cells were washed twice with FCS-buffer and resuspended in 100 μl FACS-buffer, transferred into FACS vials with a total volume of 250 μl and the expression of IL2 surface receptor CD25 was measured by FACS analysis using a FACSCalibur instrument (BD Biosciences).
Amongst other pathways, T-cell proliferation is determined by binding of the cytokine IL-2 to its cell surface receptor. Therefore the influence of cyclotides on the expression of the IL-2 receptor was tested. […] As control substance CsA was used. […] Treatment with V10A yields 114%±12.5, V10K yields 112%±16.3 and T8K yields 114%±17.3 CD25 surface expression after 24 h as compared to the control (FIG. 11B).

Test [3] concerns IL2 release in human T-cells. Briefly: IL2 release in human T-cells, ELISA. In kind it is cell-based. To be noted: CsA, T20K 4 μM, V10K 4 μM; PHA-L, PMA/ionomycin. The method, then: B. IL2 release in human T-cells after treatment with cyclotide. […] After another two hours PHA-L (10 μg/mL) was added to the appropriate wells and incubated over night at 37° C. On the next day T-cells were re-stimulated with Ionomycin (500 ng/mL) and PMA (50 ng/mL) for 6 hours at 37° C. Cells were then centrifuged at 3000 rpm for 5 minutes to gain their supernatants. Supernatants of stimulated T-cells were analyzed for their IL2 release using a human IL-2 ELISA Kit from eBioscience according to the manufacturer's instructions. The color reaction was evaluated at an optical density of 450 nm by the microplate reader Synergy H4 (BioTek).
Moreover, supernatants of stimulated T-cells were analyzed for their IL2 release using a human IL-2 ELISA Kit from eBioscience according to the manufacturer's instructions. The color reaction was evaluated at an optical density of 450 nm by the microplate reader Synergy H4 (BioTek) (FIG. 12B).
On the technique in general: ELISA stands for enzyme-linked immunosorbent assay.

The next test relates to Jurkat cells. Briefly: Ca2+ release, Fura-2. Format: cell-based, human. As to conditions: CsA, T20K 4 μM, V10K 4 μM. On the procedure:
FIG. 17. Ca^2+ release in human Jurkat and T-cells. Jurkat cells (A) and T-cells (B) 1×10^6 were loaded with 1 μM Fura-2 and 0.02% Puronic F-127 for 30 minutes at 37° C. Cells were centrifuged for 5 minutes at 1200 rpm and resuspended in media [RPMI 1640 with 10% FCS, penicillin (100 U/mL) and streptomycin ([…])]. 100 μL of cell suspension were transferred to a black 96-well plate with a clear flat-bottom. Briefly before analysis the fluorometer Synergy H4 (BioTek) was tempered to 37° C. The fluorescence time course was then measured with: extinction 340/380 nm and emission 510 nm in 30 seconds intervals, continuously shaking. Ca^2+ influx was initiated by adding compounds to the cells (illustrated by the arrow). To receive maximum Ca^2+ release cells were stimulated with PMA (50 ng/mL) and Ionomycin (500 ng/mL) and T-cells additionally with PHA-L (10 μg/mL). For lowest Ca^2+ levels, cells remained untreated.
Jurkat cells T-cells were treated as described for FIG. 17, supra.

As for `CC(C)C[C@@H]1NC(=O)CNC(=O)[C@H](CC(N)=O)NC(=O)[C@H](CCCNC(=N)N)NC(=O)[C@H]([C@@H](C)O)NC(=O)[C@@H]2CSSC[C@@H]3NC(=O)[C@H]([C@@H](C)O)NC(=O)CNC(=O)CNC(=O)[C@H](C(C)C)NC(=O)[C@@H]4CSSC[C@H](NC(=O)[C@H](CCCCN)NC(=O)[C@H](CSSC[C@H](NC(=O)[C@H](C(C)C)NC(=O)[C@@H]5CCCN5C1=O)C(=O)NCC(=O)N[C@@H](CCC(=O)O)C(=O)N[C@@H]([C@@H](C)O)C(=O)N4)NC(=O)CNC(=O)[C@@H]1CCCN1C(=O)[C@H]([C@@H](C)O)NC(=O)[C@H](CC(N)=O)NC3=O)C(=O)N[C@@H](CO)C(=O)N[C@@H](Cc1c[nH]c3ccccc13)C(=O)N1CCC[C@H]1C(=O)N[C@@H](C(C)C)C(=O)N2` [Kalata T20K] (cyclo(CGETCVGGTCNTPGCKCSWPVCTRNGLPV); disulfide 1-15, 5-17, 10-22 (inferred); ring closure inferred), the “NFATc1 signal in human T-cells” value in the test on NFATc1 in human T-cells is “reduced signal of NFATc1”. Also, in test [1], the “NFATc1 signal in mouse splenic T-cells” value is “reduced NFATc1 signal”. In test [2], the “CD25 expression after 48 h” value is 46%±18.2 and the “CD25 surface expression after 24 hours” value is reported as 79%±10.1. In test [3], the “IL2 release in human T-cells” value is “significant inhibition of cell proliferation in accordance to the IL2 level”. The “Ca2+ signaling in Jurkat cells” value with Jurkat cells is “did not induce a change in Ca^2+ signaling”.

Take “kalata B1 mutant GLPVCGETCKGGTCNTPGCTCSWPVCTRN (SEQ ID No. 10) [Kalata V10K]”: in test [2], the “CD25 expression after 48 h” value is listed as “no significant change in receptorexpression” and the “CD25 surface expression after 24 hours” value was 112%±16.3. Besides, in test [3], the “IL2 release in human T-cells” value was “comparable results”. For the same compound, the “Ca2+ signaling in Jurkat cells” value with Jurkat cells is listed as “did not induce a change in Ca^2+ signaling”.
